Assay results reported in article PMC7721803, “Development of a penem antibiotic against Mycobacteroides abscessus” (Communications Biology, 2020).
≈ marks a conversion by molar mass, not a printed value. Like-named read-outs stand apart in the source and are kept apart here.

Assays:
[1] = cited from earlier work
M. abscessus = test: MIC by broth dilution method (Middlebrook 7H9); type: cell-based, Mycobacteroides abscessus; conditions: for MIC50 / MIC90: clinical M. abscessus strains of Table 1; for MIC50: read-out: MIC50; for MIC90: read-out: MIC90
M. abscessus ATCC 19977 = type: cell-based, Mycobacteroides abscessus; conditions: drug alone at its individual MIC (T405 2 µg/mL, imipenem 8 µg/mL)
in vivo = test: in vivo; set-up: species or system BALB/c mice; conditions: female, BALB/c, mouse, 25 mg/kg, T405 concentration in blood
Description: All procedures involving mice were approved by the Animal Care and Use Committee of Johns Hopkins University. […] Blood was sampled from three mice per group per time point by mandibular vein puncture or cardiac puncture at the following time points: 5, 15, 30, 60, 120, and 240 min post-dose. Plasma was separated in heparin-containing tubes and frozen. […] Concentration–time data were analyzed by standard non-compartmental and compartmental techniques using WinNonlin (version 7.0; Pharsight, Mountain View, CA). A one-compartmental model was used to perform simulations to predict the plasma concentration–time profile after subcutaneous doses of 150, 300, and 450 mg/kg, alone and in combination with probenecid. A plasma free drug fraction of 2% of the total drug concentration was included in the simulations.

[2] = Mycobacteroides abscessus, ATCC19977, reference strain ATCC 19977, read-out: MIC
[3] = Mycobacteroides abscessus, clinical isolate 1N, read-out: MIC
[4] = Mycobacteroides abscessus, clinical isolate 2N, read-out: MIC
[5] = Mycobacteroides abscessus, clinical isolate 3N, read-out: MIC
[6] = Mycobacteroides abscessus, clinical isolate 4N, read-out: MIC
[7] = Mycobacteroides abscessus, clinical isolate 5N, read-out: MIC
[8] = Mycobacteroides abscessus, clinical isolate 8N, read-out: MIC
[9] = Mycobacteroides abscessus, clinical isolate 11N, read-out: MIC
[10] = Mycobacteroides abscessus, clinical isolate 13N, read-out: MIC
[11] = Mycobacteroides abscessus, clinical isolate 14N, read-out: MIC
[12] = Mycobacteroides abscessus, clinical isolate 202, read-out: MIC
[13] = Mycobacteroides abscessus, clinical isolate 203, read-out: MIC
[14] = Mycobacteroides abscessus, clinical isolate 204, read-out: MIC
[15] = Mycobacteroides abscessus, clinical isolate 214, read-out: MIC
[16] = Mycobacteroides abscessus, clinical isolate 215, read-out: MIC
[17] = Mycobacteroides abscessus, clinical isolate JH1801, read-out: MIC
[18] = Mycobacteroides abscessus, clinical isolate JH1802, read-out: MIC
[19] = Mycobacteroides abscessus, clinical isolate JHH2, read-out: MIC
[20] = Mycobacteroides abscessus, clinical isolate JHH4, read-out: MIC
[21] = Mycobacteroides abscessus, clinical isolate JHH9, read-out: MIC
[22] = Mycobacteroides abscessus, clinical isolate JHHKB, read-out: MIC

For `C[C@@H](O)[C@H]1C(=O)N2C(C(=O)O)=C([C@H]3CCCO3)S[C@H]12` [Faropenem], the half-life in mice [1] is given as 11.4 min, the MIC (M. abscessus; [2]) is given as 512 mg/L (≈ 1790 µM) and the MIC (M. abscessus; [3]) is given as 256 mg/L (≈ 897 µM). The MIC (M. abscessus; [4]) was 256 mg/L (≈ 897 µM), the MIC (M. abscessus; [5]) was 256 mg/L (≈ 897 µM) and the MIC (M. abscessus; [6]) was 256 mg/L (≈ 897 µM). The MIC (M. abscessus; [7]) was 512 mg/L (≈ 1790 µM), the MIC (M. abscessus; [8]) was 512 mg/L (≈ 1790 µM) and the MIC (M. abscessus; [9]) was 512 mg/L (≈ 1790 µM). The MIC (M. abscessus; [10]) was 64 mg/L (≈ 224 µM), the MIC (M. abscessus; [11]) was 512 mg/L (≈ 1790 µM) and the MIC (M. abscessus; [12]) was 512 mg/L (≈ 1790 µM). The MIC (M. abscessus; [13]) was 128 mg/L (≈ 449 µM), the MIC (M. abscessus; [14]) was 512 mg/L (≈ 1790 µM) and the MIC (M. abscessus; [15]) was 128 mg/L (≈ 449 µM). For the same compound, the MIC (M. abscessus; [16]) was 512 mg/L (≈ 1790 µM), the MIC (M. abscessus; [17]) was 512 mg/L (≈ 1790 µM) and the MIC (M. abscessus; [18]) was 256 mg/L (≈ 897 µM). For the same compound, the MIC (M. abscessus; [19]) was 512 mg/L (≈ 1790 µM), the MIC (M. abscessus; [20]) was 512 mg/L (≈ 1790 µM) and the MIC (M. abscessus; [21]) was 512 mg/L (≈ 1790 µM). For the same compound, the MIC (M. abscessus; [22]) was 512 mg/L (≈ 1790 µM), the MIC50 (M. abscessus; Mycobacteroides abscessus) was 512 mg/L (≈ 1790 µM) and the MIC90 (M. abscessus; Mycobacteroides abscessus) was 512 mg/L (≈ 1790 µM).

In the case of `C[C@@H](O)[C@H]1C(=O)N2C(C(=O)O)=C(SCCN=CN)C[C@H]12` [Imipenem], the Resistance frequency (M. abscessus ATCC 19977) is reported as 1.9 × 10^−7, the MIC (M. abscessus; [2]) is reported as 8 mg/L (≈ 26.7 µM) and the MIC (M. abscessus; [3]) is reported as 8 mg/L (≈ 26.7 µM). The MIC (M. abscessus; [4]) was 8 mg/L (≈ 26.7 µM), the MIC (M. abscessus; [5]) was 8 mg/L (≈ 26.7 µM) and the MIC (M. abscessus; [6]) was 16 mg/L (≈ 53.4 µM). For the same compound, the MIC (M. abscessus; [7]) was 16 mg/L (≈ 53.4 µM), the MIC (M. abscessus; [8]) was 32 mg/L (≈ 107 µM) and the MIC (M. abscessus; [9]) was 32 mg/L (≈ 107 µM). For the same compound, the MIC (M. abscessus; [10]) was 8 mg/L (≈ 26.7 µM), the MIC (M. abscessus; [11]) was 32 mg/L (≈ 107 µM) and the MIC (M. abscessus; [12]) was 16 mg/L (≈ 53.4 µM). It also gave an MIC (M. abscessus; [13]) of 32 mg/L (≈ 107 µM), an MIC (M. abscessus; [14]) of 32 mg/L (≈ 107 µM) and an MIC (M. abscessus; [15]) of 8 mg/L (≈ 26.7 µM). It also gave an MIC (M. abscessus; [16]) of 16 mg/L (≈ 53.4 µM), an MIC (M. abscessus; [17]) of 16 mg/L (≈ 53.4 µM) and an MIC (M. abscessus; [18]) of 16 mg/L (≈ 53.4 µM). For the same compound, the MIC (M. abscessus; [19]) was 32 mg/L (≈ 107 µM), the MIC (M. abscessus; [20]) was 16 mg/L (≈ 53.4 µM) and the MIC (M. abscessus; [21]) was 16 mg/L (≈ 53.4 µM). The MIC (M. abscessus; [22]) was 256 mg/L (≈ 855 µM), the MIC50 (M. abscessus; Mycobacteroides abscessus) was 16 mg/L (≈ 53.4 µM) and the MIC90 (M. abscessus; Mycobacteroides abscessus) was 32 mg/L (≈ 107 µM).

For `C[C@@H](O)[C@@H]1C(=O)N2C(C(=O)O)=C(SC3CN(C4=NCCS4)C3)S[C@@H]12` [T405], the concentration at 5 min (in vivo) was 0.169 µg/mL, the concentration at 0.25 h (in vivo) was 0.157 µg/mL and the concentration at 0.5 h (in vivo) was 0.143 µg/mL. The concentration at 1 h (in vivo) was 0.065 µg/mL and the concentration at 2 h (in vivo) was 0.0251 µg/mL.

Compound `NC(=O)[C@@H]1CC[C@@H]2CN1C(=O)N2OS(=O)(=O)O` [avibactam] has an MIC (M. abscessus; reference strain ATCC 19977) of 256 mg/L (≈ 965 µM).
